Laboratory results from article PMC3168433, “Drosophila KCNQ Channel Displays Evolutionarily Conserved Electrophysiology and Pharmacology with Mammalian KCNQ Channels” (PLoS ONE, 2011).

Columns and labels:
Format in all cases: cell-based
dKCNQ [1] = target: T1, dKCNQ (Drosophila melanogaster, UniProt Q5PXF9); test: whole-cell patch clamp, HEK cells, current at +[…] mV; settings: HEK293
T1 construct: gene KCNQ; full-length cDNA RE26469 in pIRES2-EGFP, expressed in HEK cells; homotetramer
T1 sequence (Q5PXF9 1-808): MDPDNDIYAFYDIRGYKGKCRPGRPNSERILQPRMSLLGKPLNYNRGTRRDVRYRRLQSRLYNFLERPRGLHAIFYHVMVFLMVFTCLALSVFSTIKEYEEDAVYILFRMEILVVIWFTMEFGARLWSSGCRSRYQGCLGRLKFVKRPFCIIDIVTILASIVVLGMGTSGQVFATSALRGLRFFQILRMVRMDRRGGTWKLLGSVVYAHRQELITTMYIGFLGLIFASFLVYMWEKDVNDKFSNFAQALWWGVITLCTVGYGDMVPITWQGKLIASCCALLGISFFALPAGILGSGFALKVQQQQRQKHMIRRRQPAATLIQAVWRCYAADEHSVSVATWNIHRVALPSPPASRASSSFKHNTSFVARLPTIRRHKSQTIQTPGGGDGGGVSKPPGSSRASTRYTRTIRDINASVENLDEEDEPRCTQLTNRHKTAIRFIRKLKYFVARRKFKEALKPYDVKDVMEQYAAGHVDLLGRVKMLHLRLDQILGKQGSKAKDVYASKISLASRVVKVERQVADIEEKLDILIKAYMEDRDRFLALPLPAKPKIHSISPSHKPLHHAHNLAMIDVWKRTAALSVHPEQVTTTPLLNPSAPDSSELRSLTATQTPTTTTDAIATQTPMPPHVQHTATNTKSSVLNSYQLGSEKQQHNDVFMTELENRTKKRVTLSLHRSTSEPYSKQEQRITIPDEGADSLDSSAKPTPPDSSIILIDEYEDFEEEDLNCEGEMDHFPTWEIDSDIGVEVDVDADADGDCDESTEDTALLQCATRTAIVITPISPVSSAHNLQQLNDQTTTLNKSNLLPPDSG

KCNQ2/3 [2] = target: T2, KCNQ2/3 (Rattus norvegicus, UniProt O88943+O88944); test: as above; settings: HEK293
T2 construct: rat KCNQ2 and KCNQ3 cDNAs in pcDNA3.1 co-transfected 1:1 in HEK cells; heterotetramer

dKCNQ [3] = target: T1, dKCNQ; test: as above
KCNQ1/KCNE1 = target: T3, KCNQ1/KCNE1 (Homo sapiens, UniProt P51787); test: as above; settings: HEK293
T3 construct: human KCNQ1 co-expressed with KCNE1 (cDNA 1:2) in HEK cells, pIRES1-CD8; with Potassium voltage-gated channel subfamily E member 1

KCNQ2/3 [4] = target: T2, KCNQ2/3; test: whole-cell patch clamp, HEK cells, current at −[…] mV; settings: opener; at −30 mV; activation V0.5 shifted by −24 mV; pH 7.2; room temperature

T2 sequence (O88943 whole entry): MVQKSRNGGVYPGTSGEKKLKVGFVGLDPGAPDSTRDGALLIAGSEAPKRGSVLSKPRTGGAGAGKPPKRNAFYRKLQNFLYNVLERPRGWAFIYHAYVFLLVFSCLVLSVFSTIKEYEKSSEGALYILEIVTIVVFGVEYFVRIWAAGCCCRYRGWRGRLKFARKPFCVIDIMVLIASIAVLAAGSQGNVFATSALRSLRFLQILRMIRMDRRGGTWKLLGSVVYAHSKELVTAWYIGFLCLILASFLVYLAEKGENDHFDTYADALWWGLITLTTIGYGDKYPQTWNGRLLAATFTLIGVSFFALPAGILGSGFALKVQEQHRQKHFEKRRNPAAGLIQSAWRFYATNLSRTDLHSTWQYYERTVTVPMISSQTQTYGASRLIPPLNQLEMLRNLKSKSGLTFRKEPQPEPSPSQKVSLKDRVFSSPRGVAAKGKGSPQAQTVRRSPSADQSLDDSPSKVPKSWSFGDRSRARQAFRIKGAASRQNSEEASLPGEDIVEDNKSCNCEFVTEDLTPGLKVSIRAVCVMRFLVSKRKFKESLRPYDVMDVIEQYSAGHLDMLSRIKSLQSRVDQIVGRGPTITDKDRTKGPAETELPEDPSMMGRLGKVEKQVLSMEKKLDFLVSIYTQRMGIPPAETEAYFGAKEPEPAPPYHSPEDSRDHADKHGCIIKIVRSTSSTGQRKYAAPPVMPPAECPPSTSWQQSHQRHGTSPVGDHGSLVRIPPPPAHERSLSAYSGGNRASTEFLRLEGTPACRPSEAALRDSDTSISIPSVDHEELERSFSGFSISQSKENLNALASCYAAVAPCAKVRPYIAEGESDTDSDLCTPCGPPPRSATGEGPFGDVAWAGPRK
T2 sequence (O88944 whole entry): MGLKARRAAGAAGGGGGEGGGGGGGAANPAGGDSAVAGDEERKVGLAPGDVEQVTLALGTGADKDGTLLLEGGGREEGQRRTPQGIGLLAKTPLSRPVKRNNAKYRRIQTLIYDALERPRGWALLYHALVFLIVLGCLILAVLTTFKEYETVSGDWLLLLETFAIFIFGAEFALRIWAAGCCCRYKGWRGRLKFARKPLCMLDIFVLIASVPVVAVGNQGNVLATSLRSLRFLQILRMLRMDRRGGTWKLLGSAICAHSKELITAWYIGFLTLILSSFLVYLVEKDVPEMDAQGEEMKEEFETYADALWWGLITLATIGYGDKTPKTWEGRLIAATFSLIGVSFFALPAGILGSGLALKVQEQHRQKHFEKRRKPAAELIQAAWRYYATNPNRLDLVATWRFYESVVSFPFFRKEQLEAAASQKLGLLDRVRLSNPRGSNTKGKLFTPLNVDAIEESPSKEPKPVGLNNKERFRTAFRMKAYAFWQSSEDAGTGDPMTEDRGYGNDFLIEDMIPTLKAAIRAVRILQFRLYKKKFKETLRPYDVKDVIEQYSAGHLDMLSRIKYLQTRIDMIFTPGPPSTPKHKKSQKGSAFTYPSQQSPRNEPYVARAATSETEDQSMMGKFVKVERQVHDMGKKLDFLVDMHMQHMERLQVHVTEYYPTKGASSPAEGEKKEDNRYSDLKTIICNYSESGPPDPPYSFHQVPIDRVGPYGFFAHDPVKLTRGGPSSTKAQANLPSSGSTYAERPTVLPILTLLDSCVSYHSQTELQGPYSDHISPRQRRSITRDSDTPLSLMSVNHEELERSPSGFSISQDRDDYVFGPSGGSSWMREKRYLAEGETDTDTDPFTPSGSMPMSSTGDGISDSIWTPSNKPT
T3 sequence (P51787 whole entry): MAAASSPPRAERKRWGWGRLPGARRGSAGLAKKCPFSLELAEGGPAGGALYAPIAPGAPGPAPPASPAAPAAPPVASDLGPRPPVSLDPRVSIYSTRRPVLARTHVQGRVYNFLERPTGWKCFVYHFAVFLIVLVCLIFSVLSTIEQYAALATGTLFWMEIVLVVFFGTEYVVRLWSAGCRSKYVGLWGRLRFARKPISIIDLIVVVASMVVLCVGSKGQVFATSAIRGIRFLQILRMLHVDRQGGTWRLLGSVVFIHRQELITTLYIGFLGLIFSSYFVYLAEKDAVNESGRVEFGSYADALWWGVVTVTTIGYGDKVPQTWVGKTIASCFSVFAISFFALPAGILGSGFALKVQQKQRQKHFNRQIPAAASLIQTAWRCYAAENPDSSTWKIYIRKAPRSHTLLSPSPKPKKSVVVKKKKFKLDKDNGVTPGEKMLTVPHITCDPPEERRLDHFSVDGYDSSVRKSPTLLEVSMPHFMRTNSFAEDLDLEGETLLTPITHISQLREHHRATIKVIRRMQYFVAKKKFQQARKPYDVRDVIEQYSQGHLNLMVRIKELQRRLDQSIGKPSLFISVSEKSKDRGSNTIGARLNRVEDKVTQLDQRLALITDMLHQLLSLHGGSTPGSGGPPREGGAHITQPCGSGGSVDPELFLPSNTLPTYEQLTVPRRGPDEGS

SMILES | inhibition at 10 µM (dKCNQ [1]) [%] | inhibition at 10 µM (KCNQ2/3 [2]) [%] | IC50 (dKCNQ [3]) [µM] | inhibition at 10 µM (KCNQ1/KCNE1) [%] | % current enhancement at 10 μM (KCNQ2/3 [4])
O=C1N(c2ccccc2)c2ccccc2C1(Cc1ccncc1)Cc1ccncc1 [linopirdine] | ~30 | ~40 |  |  | 
O=C1c2ccccc2C(Cc2ccncc2)(Cc2ccncc2)c2ccccc21 [XE991, 10,10-bis(4-Pyridinylmethyl)-9(10H)-anthracenone] |  | ~50 | 5.5 ± 1.1 |  | 
CCS(=O)(=O)N(C)C1c2cc(C#N)ccc2OC(C)(C)C1O (stereo not shown) [chromanol 293B] |  |  | 13 ± 3.6 | ~56 | 
CCOC(=O)Nc1ccc(NCc2ccc(F)cc2)cc1N [retigabine] |  |  |  |  | ~ 35%
